Structures are written as SMILES.

For one experiment, the target named is FabF (ketosynthase) (Escherichia coli, UniProt P0AAI5). Format: binding.
For another experiment, the target named is FabB (ketosynthase) (Escherichia coli, UniProt P0A953). Format: binding.
FabB (ketosynthase), sequence (P0A953 whole entry): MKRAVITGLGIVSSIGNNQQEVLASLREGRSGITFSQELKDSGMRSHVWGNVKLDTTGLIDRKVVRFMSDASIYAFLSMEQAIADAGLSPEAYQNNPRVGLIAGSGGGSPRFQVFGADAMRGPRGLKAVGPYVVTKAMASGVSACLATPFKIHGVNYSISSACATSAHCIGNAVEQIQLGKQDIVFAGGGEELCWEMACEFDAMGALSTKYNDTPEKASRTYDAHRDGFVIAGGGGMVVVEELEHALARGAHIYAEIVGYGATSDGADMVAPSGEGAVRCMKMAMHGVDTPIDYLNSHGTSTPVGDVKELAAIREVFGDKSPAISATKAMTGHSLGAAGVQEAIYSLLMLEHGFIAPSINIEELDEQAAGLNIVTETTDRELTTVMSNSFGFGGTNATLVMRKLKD
FabB (ketosynthase), sequence (P0A6A8 2-78 partner): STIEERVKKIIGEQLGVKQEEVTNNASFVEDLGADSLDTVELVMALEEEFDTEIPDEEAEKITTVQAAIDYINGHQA

FabF (ketosynthase), sequence (P0AAI5 2-413): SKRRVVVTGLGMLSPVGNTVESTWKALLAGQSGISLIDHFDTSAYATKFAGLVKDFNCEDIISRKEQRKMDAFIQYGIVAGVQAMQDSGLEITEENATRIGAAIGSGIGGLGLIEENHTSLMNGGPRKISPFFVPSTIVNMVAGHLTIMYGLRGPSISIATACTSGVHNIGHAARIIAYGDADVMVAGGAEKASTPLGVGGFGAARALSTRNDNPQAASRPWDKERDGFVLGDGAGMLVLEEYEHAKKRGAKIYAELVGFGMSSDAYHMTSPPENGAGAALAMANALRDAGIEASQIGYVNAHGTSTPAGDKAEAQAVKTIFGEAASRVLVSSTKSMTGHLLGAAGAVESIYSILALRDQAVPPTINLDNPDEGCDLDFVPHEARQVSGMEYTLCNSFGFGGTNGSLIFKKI
FabF (ketosynthase), sequence (P0A6A8 2-78 partner): as the sequence (P0A6A8 2-78 partner) above

For the compound `C/C=C/C/C=C/CCC(=O)[C@H]1O[C@H]1C(N)=O` [cerulenin], the IC50 against FabF (ketosynthase) was around 21.1 µM; against FabB (ketosynthase) it was around 22.5 µM.

The record behind these values is PMC11575542 (Chemical Science, 2024).
